In PubChem BioAssay (NCI):
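48-hour exposure; five concentrations; linearly interpolated endpoints. TGI is the concentration that stops growth completely.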

Legend:
Experiment in all cases: NCI tumour cell line growth inhibition, 48 h
HCC-2998 colon = system: HCC-2998 colon
HT29 colon = system: HT29 colon
MALME-3M melanoma = system: MALME-3M melanoma
MDA-MB-231 breast = system: MDA-MB-231 breast
MDA-MB-435 = system: MDA-MB-435
MDA-N = system: MDA-N
NCI-H226 lung = system: NCI-H226 lung
NCI-H460 lung = system: NCI-H460 lung
NCI/ADR-RES ovarian = system: NCI/ADR-RES ovarian
SF-539 CNS = system: SF-539 CNS
SW-620 colon = system: SW-620 colon
UACC-62 melanoma = system: UACC-62 melanoma
DLD-1 colon = system: DLD-1 colon
DMS 273 small cell lung = system: DMS 273 small cell lung
KM20L2 colon = system: KM20L2 colon
M19-MEL melanoma = system: M19-MEL melanoma
SNB-78 CNS = system: SNB-78 CNS
XF 498 CNS = system: XF 498 CNS
DU-145 prostate = system: DU-145 prostate
T-47D breast = system: T-47D breast

Row | SMILES | TGI (HCC-2998 colon) | TGI (HT29 colon) | TGI (MALME-3M melanoma) | TGI (MDA-MB-231 breast) | TGI (MDA-MB-435) | TGI (MDA-N) | TGI (NCI-H226 lung) | TGI (NCI-H460 lung) | TGI (NCI/ADR-RES ovarian) | TGI (SF-539 CNS) | TGI (SW-620 colon) | TGI (UACC-62 melanoma) | TGI (DLD-1 colon) | TGI (DMS 273 small cell lung) | TGI (KM20L2 colon) | TGI (M19-MEL melanoma) | TGI (SNB-78 CNS) | TGI (XF 498 CNS) | TGI (DU-145 prostate) | TGI (T-47D breast)
1 | CCOP(=O)(OCC)/C(C#N)=C/c1cn(C)cn1 | > 100 µM | > 100 µM | > 100 µM | > 100 µM | > 100 µM | > 100 µM | > 100 µM | > 100 µM | > 100 µM | > 100 µM | > 100 µM | > 100 µM | – | – | – | – | – | – | – | –
2 | CC(C)OP(=O)(OC(C)C)/C(I)=N/Nc1ccc([N+](=O)[O-])cc1 | > 100 µM | > 100 µM | > 100 µM | – | – | – | – | > 100 µM | – | > 100 µM | > 100 µM | > 100 µM | > 100 µM | > 100 µM | > 100 µM | > 100 µM | > 100 µM | > 100 µM | – | –
3 | C[Si](C)(OCCS(=O)(=O)O)C1(Cc2cccc3ccccc23)S(=O)(=O)OCCOS1(=O)=O | 30.7 µM | – | – | 43.3 µM | 43 µM | 41.9 µM | 45.8 µM | 41.1 µM | > 100 µM | 39.5 µM | 33.7 µM | 43 µM | – | – | – | – | – | – | 37.4 µM | 34.6 µM
4 | Cc1ccc(N=N/C(=N\NC(=O)c2ccc(C)cc2)c2ccc(N(CCC#N)CCC#N)cc2C)cc1 | > 100 µM | > 100 µM | – | > 100 µM | 65.8 µM | > 100 µM | > 100 µM | > 100 µM | > 100 µM | 45.1 µM | > 100 µM | 56.7 µM | – | – | – | – | – | – | > 100 µM | > 100 µM
5 | Cc1ccc(N2Cc3c(ccc4ccccc34)OP2(=O)Oc2ccc(Cl)c(C)c2)cc1 (centres undefined) | > 100 µM | > 100 µM | > 100 µM | – | – | – | > 100 µM | > 100 µM | > 100 µM | > 100 µM | > 100 µM | > 100 µM | > 100 µM | > 100 µM | > 100 µM | > 100 µM | > 100 µM | > 100 µM | – | –
6 | COc1ccc(-n2cnnc2-c2nsc3ccccc23)cc1 | > 100 µM | > 100 µM | – | – | – | – | – | > 100 µM | – | > 100 µM | > 100 µM | > 100 µM | – | > 100 µM | > 100 µM | > 100 µM | > 100 µM | – | – | –
7 | CC1=Nc2nc(Cl)cn2C(=O)C1(Cl)Cl | > 10 µM | > 10 µM | > 10 µM | > 10 µM | > 10 µM | > 10 µM | > 10 µM | > 10 µM | > 10 µM | > 10 µM | > 10 µM | > 10 µM | – | – | – | – | – | – | > 10 µM | > 10 µM
8 | CC(NC(=O)C(C)NC(=O)C(N)CCP(C)(=O)O)C(=O)O (centres undefined) | > 100 µM | > 100 µM | > 100 µM | – | – | – | > 100 µM | > 100 µM | > 100 µM | > 100 µM | > 100 µM | > 100 µM | > 100 µM | > 100 µM | > 100 µM | > 100 µM | > 100 µM | > 100 µM | – | –
